Measurements: ChEMBL document CHEMBL5131475, “Metallo-β-lactamases inhibitor fisetin attenuates meropenem resistance in NDM-1-producing Escherichia coli” (Eur J Med Chem, 2022)
Values after ≈ are worked out from the molar mass of the structure shown. Active and inactive are the calls of the source. The calls are words filed in the database; no cut-off is given here.

Columns and labels:
Bacteria [1] = test system: Bacteria
Description: Binding affinity to NDM-1 M248A mutant (unknown origin) assessed as binding constant by fluorescence quenching method

Escherichia coli [2] = test: Synergistic antibacterial activity against NDM-1 positive Escherichia coli ZC-YN3 isolates assessed as fractional Inhibitory concentration index incubated for 18 to 24 hrs in presence of lincomycin by CLSI based broth microdilution method; type: functional; conditions: time 18-24 hrs
Escherichia coli [3] = test: Synergistic antibacterial activity against NDM-1 positive Escherichia coli ZC-YN3 isolates assessed as fractional Inhibitory concentration index incubated for 18 to 24 hrs in presence of rifampicin by CLSI based broth microdilution method; type: functional; conditions: time 18-24 hrs
Escherichia coli [4] = test: Synergistic antibacterial activity against NDM-1 positive Escherichia coli ZC-YN3 isolates assessed as fractional Inhibitory concentration index incubated for 18 to 24 hrs in presence of meropenem by CLSI based broth microdilution method; type: functional; conditions: time 18-24 hrs
Escherichia coli [5] = test: Synergistic antibacterial activity against pET28a NDM-1 positive Escherichia coli BL21(DE3) isolates assessed as fractional Inhibitory concentration index incubated for 18 to 24 hrs in presence of ciprofloxacin by CLSI based broth microdilution method; type: functional; conditions: time 18-24 hrs
Escherichia coli [6] = test: Synergistic antibacterial activity against pET28a NDM-1 positive Escherichia coli BL21(DE3) isolates assessed as fractional Inhibitory concentration index incubated for 18 to 24 hrs in presence of kanamycin by CLSI based broth microdilution method; type: functional; conditions: time 18-24 hrs
Escherichia coli [7] = test: Antibacterial activity against NDM-1 positive Escherichia coli ZC-YN3 isolates assessed as imipenem MIC incubated for 18 to 24 hrs by CLSI based broth microdilution method; type: functional; conditions: time 18-24 hrs
Escherichia coli [8] = test: Synergistic antibacterial activity against NDM-1 positive MCR1 carrying Escherichia coli ZJ487 isolates assessed as fractional Inhibitory concentration index incubated for 18 to 24 hrs in presence of meropenem by CLSI based broth microdilution method; type: functional; conditions: time 18-24 hrs
Escherichia coli [9] = test: Antibacterial activity against NDM-1 positive Escherichia coli ZC-YN3 isolates assessed as meropenem MIC incubated for 18 to 24 hrs by CLSI based broth microdilution method; type: functional; conditions: time 18-24 hrs
Escherichia coli [10] = test: Synergistic antibacterial activity against pET28a NDM-1 positive Escherichia coli BL21(DE3) isolates assessed as fractional Inhibitory concentration index incubated for 18 to 24 hrs in presence of rifampicin by CLSI based broth microdilution method; type: functional; conditions: time 18-24 hrs
Escherichia coli [11] = test: Antibacterial activity against pET28a-NDM-1 positive Escherichia coli BL21(DE3) isolates assessed as cefotaxime MIC incubated for 18 to 24 hrs by CLSI based broth microdilution method; type: functional; conditions: time 18-24 hrs
Escherichia coli [12] = test: Antibacterial activity against NDM-1 positive Escherichia coli ZC-YN3 isolates assessed as rifampicin MIC incubated for 18 to 24 hrs by CLSI based broth microdilution method; type: functional; conditions: time 18-24 hrs
Escherichia coli [13] = test: Antibacterial activity against NDM-1 positive Escherichia coli ZC-YN3 isolates assessed as tetracycline MIC incubated for 18 to 24 hrs by CLSI based broth microdilution method; type: functional; conditions: time 18-24 hrs
Escherichia coli [14] = test: Synergistic antibacterial activity against NDM-1 positive Escherichia coli ZC-YN3 isolates assessed as fractional Inhibitory concentration index incubated for 18 to 24 hrs in presence of imipenem by CLSI based broth microdilution method; type: functional; conditions: time 18-24 hrs
[15] = Inhibition of class A […]beta-lactamase KPC-2 (unknown origin) using nitrocefin as substrate preincubated for 15 min followed by substrate addition and measured after 15 min by microplate reader assay; design: species or system Bacteria
Escherichia coli [16] = test: Antibacterial activity against pET28a-NDM-1 positive Escherichia coli BL21(DE3) isolates assessed as spectinomycin MIC incubated for 18 to 24 hrs by CLSI based broth microdilution method; type: functional; conditions: time 18-24 hrs
Escherichia coli [17] = test: Antibacterial activity against pET28a-NDM-1 positive Escherichia coli BL21(DE3) isolates assessed as streptomycin MIC incubated for 18 to 24 hrs by CLSI based broth microdilution method; type: functional; conditions: time 18-24 hrs
Escherichia coli [18] = test: Antibacterial activity against NDM-1 positive Escherichia coli ZC-YN3 isolates assessed as colistin MIC incubated for 18 to 24 hrs by CLSI based broth microdilution method; type: functional; conditions: time 18-24 hrs
[19] = Inhibition of metallo-beta-lactamase VIM-1 (unknown origin) using nitrocefin as substrate preincubated for 15 min followed by substrate addition and measured after 15 min by microplate reader assay; design: species or system Bacteria
Escherichia coli [20] = test: Antibacterial activity against pET28a-NDM-1 positive Escherichia coli BL21(DE3) isolates assessed as colistin MIC incubated for 18 to 24 hrs by CLSI based broth microdilution method; type: functional; conditions: time 18-24 hrs
Bacteria [21] = test: Inhibition of NDM-1 H250A mutant activity (unknown origin) in presence of zinc ion
Escherichia coli [22] = test: Synergistic antibacterial activity against NDM-1 negative Escherichia coli BL21(DE3) (pET28a) isolates assessed as fractional Inhibitory concentration index incubated for 18 to 24 hrs in presence of meropenem by CLSI based broth microdilution method; type: functional; conditions: time 18-24 hrs
Bacteria [23] = test system: Bacteria; remark: listed apart in the source
Description: Binding affinity to NDM-1 (unknown origin) assessed as binding constant by fluorescence quenching method

Escherichia coli [24] = test: Bactericidal activity against pET28a-NDM-1 producing Escherichia coli BL21(DE3) at 32 ug/ml measured within 3 hrs in presence of meropenem by time kill curve assay; type: functional, organism-based; conditions: dose 32.0 µg/ml
Escherichia coli [25] = test: Synergistic antibacterial activity against pET28a NDM-1 positive Escherichia coli BL21(DE3) isolates assessed as fractional Inhibitory concentration index incubated for 18 to 24 hrs in presence of meropenem by CLSI based broth microdilution method; type: functional; conditions: time 18-24 hrs
Escherichia coli [26] = test: Antibacterial activity against NDM-1 positive Escherichia coli ZC-YN3 isolates assessed as streptomycin MIC incubated for 18 to 24 hrs by CLSI based broth microdilution method; type: functional; conditions: time 18-24 hrs
Mus musculus = test: Antibacterial activity in BALB/c mouse infected with NDM-1 positive Escherichia coli ZJ487 assessed as mouse death rate at 50 mg/kg, sc administered every 12 hrs and measured after 96 hrs post infection; type: functional
Escherichia coli [27] = test: Antibacterial activity against NDM-1 positive Escherichia coli ZC-YN3 isolates assessed as cefotaxime MIC incubated for 18 to 24 hrs by CLSI based broth microdilution method; type: functional; conditions: time 18-24 hrs
Escherichia coli [28] = test: Antibacterial activity against NDM-1 positive Escherichia coli ZC-YN3 isolates assessed as kanamycin MIC incubated for 18 to 24 hrs by CLSI based broth microdilution method; type: functional; conditions: time 18-24 hrs
[29] = Inhibition of metallo-beta-lactamase IMP-1 (unknown origin) using nitrocefin as substrate preincubated for 15 min followed by substrate addition and measured after 15 min by microplate reader assay; design: species or system Bacteria
Escherichia coli [30] = test: Antibacterial activity against pET28a-NDM-1 positive Escherichia coli BL21(DE3) isolates assessed as lincomycin MIC incubated for 18 to 24 hrs by CLSI based broth microdilution method; type: functional; conditions: time 18-24 hrs
Escherichia coli [31] = test: Synergistic antibacterial activity against NDM-1 positive Escherichia coli ZC-YN3 isolates assessed as fractional Inhibitory concentration index incubated for 18 to 24 hrs in presence of kanamycin by CLSI based broth microdilution method; type: functional; conditions: time 18-24 hrs
Bacteria [32] = test: Binding affinity to NDM-1 M248A mutant (unknown origin) assessed as binding free energy by fluorescence quenching method
Escherichia coli [33] = test: Antibacterial activity against pET28a-NDM-1 positive Escherichia coli BL21(DE3) isolates assessed as rifampicin MIC incubated for 18 to 24 hrs by CLSI based broth microdilution method; type: functional; conditions: time 18-24 hrs
Escherichia coli [34] = test: Synergistic antibacterial activity against NDM-1 positive Escherichia coli ZC-YN3 isolates assessed as fractional Inhibitory concentration index incubated for 18 to 24 hrs in presence of florfenicol by CLSI based broth microdilution method; type: functional; conditions: time 18-24 hrs

SMILES: O=c1c(O)c(-c2ccc(O)c(O)c2)oc2cc(O)ccc12 [FISETIN]
- Ka (Bacteria [1]): 7.39 10^5L/mol
- fractional inhibitory concentration index (FICI) (Escherichia coli [2]): 1.13
- fractional inhibitory concentration index (FICI) (Escherichia coli [3]): 0.96
- fractional inhibitory concentration index (FICI) (Escherichia coli [4]): 0.31
- fractional inhibitory concentration index (FICI) (Escherichia coli [5]): 0.96
- fractional inhibitory concentration index (FICI) (Escherichia coli [6]): 1.13
- MIC (Escherichia coli [7]): 6.67 µg/mL
- fractional inhibitory concentration index (FICI) (Escherichia coli [8]): 0.38
- MIC (Escherichia coli [9]): 4 µg/mL
- fractional inhibitory concentration index (FICI) (Escherichia coli [10]): 0.96
- MIC (Escherichia coli [11]): 512 µg/mL
- MIC (Escherichia coli [12]): 10.7 µg/mL
- MIC (Escherichia coli [13]): 128 µg/mL
- fractional inhibitory concentration index (FICI) (Escherichia coli [14]): 0.38
- IC50 [15]: 2.63 µg/mL (≈ 9.19 µM)
- MIC (Escherichia coli [16]): 512 µg/mL
- MIC (Escherichia coli [17]): 42.7 µg/mL
- MIC (Escherichia coli [18]): 1.33 µg/mL
- IC50 [19]: 11.37 µg/mL (≈ 39.7 µM)
- MIC (Escherichia coli [20]): 1.67 µg/mL
- inhibition (Bacteria [21]): Active
- fractional inhibitory concentration index (FICI) (Escherichia coli [22]): 1.13
- Ka (Bacteria [23]): 12.2 10^5L/mol
- Activity (Escherichia coli [24]): Active
- fractional inhibitory concentration index (FICI) (Escherichia coli [25]): 0.25
- MIC (Escherichia coli [26]): 256 µg/mL
- Activity (Mus musculus): 90%
- MIC (Escherichia coli [27]): 512 µg/mL
- MIC (Escherichia coli [28]): 853 µg/mL
- IC50 [29]: 56.13 µg/mL (≈ 196 µM)
- MIC (Escherichia coli [30]): 853 µg/mL
- fractional inhibitory concentration index (FICI) (Escherichia coli [31]): 1.13
- Activity (Bacteria [32]): -16.2 kcal/mol
- MIC (Escherichia coli [33]): 853 µg/mL
- fractional inhibitory concentration index (FICI) (Escherichia coli [34]): 0.96
